Experimental data: patent US20250268903A1, “RXFP1 AGONISTS” (BRISTOL-MYERS SQUIBB COMPANY, priority 2021, published 2025)

Target: T1, human RXFP1 (Homo sapiens, UniProt Q9HBX9)
T1 construct: expressed in transfected cells
T1 sequence (Q9HBX9 1-757): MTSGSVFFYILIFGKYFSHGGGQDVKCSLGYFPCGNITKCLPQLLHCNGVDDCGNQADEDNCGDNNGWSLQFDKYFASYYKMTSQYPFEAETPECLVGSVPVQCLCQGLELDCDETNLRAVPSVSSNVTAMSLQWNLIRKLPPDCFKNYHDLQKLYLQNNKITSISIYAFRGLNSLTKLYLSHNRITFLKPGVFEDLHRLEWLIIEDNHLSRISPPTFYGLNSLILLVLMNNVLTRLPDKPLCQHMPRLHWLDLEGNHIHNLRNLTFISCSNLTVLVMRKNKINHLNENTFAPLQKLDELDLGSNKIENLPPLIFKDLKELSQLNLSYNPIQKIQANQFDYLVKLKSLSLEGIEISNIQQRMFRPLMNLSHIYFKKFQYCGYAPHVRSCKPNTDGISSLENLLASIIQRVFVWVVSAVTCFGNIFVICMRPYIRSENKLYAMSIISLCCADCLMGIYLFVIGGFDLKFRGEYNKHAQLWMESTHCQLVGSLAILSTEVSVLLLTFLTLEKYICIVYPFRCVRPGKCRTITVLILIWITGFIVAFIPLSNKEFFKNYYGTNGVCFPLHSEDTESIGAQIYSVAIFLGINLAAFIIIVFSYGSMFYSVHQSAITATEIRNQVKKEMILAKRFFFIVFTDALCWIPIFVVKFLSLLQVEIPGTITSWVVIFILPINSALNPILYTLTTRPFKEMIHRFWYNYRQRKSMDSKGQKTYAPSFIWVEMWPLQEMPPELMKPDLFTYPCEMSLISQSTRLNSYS
Experiment: hRXFP1 HEK293 cAMP assay (HTRF)
Type: cell-based
Conditions: HEK293 cells stably expressing human RXFP1, 30 min at room temperature
Procedure, shortened: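 In a stable human RXFP1 HEK293 line, compounds acted for 30 min at RT in buffer with 0.5 mM IBMX. HTRF then quantified cellular cAMP.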

Q: How did the EC50 turn out when `COc1c(F)cc(C(=O)NCC2(S(C)(=O)=O)CC2)cc1C(=O)N[C@H]1[C@@H](C(=O)Nc2ccc(F)c(C(F)(F)F)c2)[C@H]2CC[C@@H]1/C2=C\C1CC1` [Example 366, N3-[(1R,2R,3S,4R,7Z)-7-(cyclopropyl-methylidene)-3-{[4-fluoro 3-(trifluoromethyl)phenyl]carbamoyl}bicyclo[2.2.1]heptan-2-yl]-5-fluoro-N1-[(1-methanesulfonyl-cyclopropyl)methyl]-4-methoxybenzene-1,3-dicarboxamide] was run?
A: 3.1 nM

Q: Which EC50 does the source give for `COc1c(F)cc(C(=O)NCC2(S(C)(=O)=O)CC2)cc1C(=O)N[C@H]1[C@@H](C(=O)Nc2ccc(F)c(C(F)(F)F)c2)[C@H]2CC[C@@H]1/C2=C\C1CCCC1` [Example 367, N3-[(1R,2R,3S,4R,7Z)-7-(cyclopentyl-methylidene)-3-{[4-fluoro-3-(trifluoromethyl)phenyl]carbamoyl}bicyclo[2.2.1]heptan-2-yl]-5-fluoro-N1-[(1-methanesulfonyl-cyclopropyl)methyl]-4-methoxybenzene-1,3-dicarboxamide] here?
A: 2.3 nM

Q: `COc1c(F)cc(C(=O)NCC2(S(C)(=O)=O)CC2)cc1C(=O)N[C@H]1[C@@H](C(=O)Nc2ccc(F)c(C(F)(F)F)c2)[C@H]2CC[C@@H]1/C2=C\C(F)(F)F` [Example 368, 5-fluoro-N3-[(1R,2R,3S,4R,7Z)-3-{[4-fluoro-3-(trifluoromethyl)phenyl]carbamoyl}-7-(2,2,2-trifluoroethylidene)bicyclo[2.2.1]heptan-2-yl]-N1-[(1-methanesulfonyl-cyclopropyl)methyl]-4-methoxybenzene-1,3-dicarboxamide] was tested. Which EC50 did it give?
A: 9.1 nM

Q: Which EC50 does the source give for `COc1c(F)cc(C(=O)NCC2(S(C)(=O)=O)CC2)cc1C(=O)N[C@H]1[C@@H](C(=O)N[C@H](C)C2(C)CC2)[C@H]2CC[C@@H]1/C2=C\C1CC1` [Example 369, N3-[(1R,2R,3S,4R,7Z)-7-(cyclopropyl-methylidene)-3-{[(1R)-1-(1-methylcyclopropyl)ethyl]carbamoyl}bicyclo[2.2.1]heptan-2-yl]-5-fluoro-N1-[(1-methanesulfonyl-cyclopropyl)methyl]-4-methoxybenzene-1,3-dicarboxamide] here?
A: 3 nM

Q: `COc1c(F)cc(C2CC3CC(CO)CC3C2)cc1C(=O)N[C@H]1[C@@H](C(=O)Nc2ccc(F)c(C(F)(F)F)c2)[C@H]2CC[C@@H]1/C2=C\C1CCCC1` (stereo partly drawn) [Example 370, (1R,2S,3R,4R,7Z)-7-(cyclopentyl-methylidene)-N-[4-fluoro-3-(trifluoromethyl)phenyl]-3-{3-fluoro-5-[5-(hydroxymethyl)-octahydropentalen-2-yl]-2-methoxybenzamido} bicyclo[2.2.1]heptane-2-carboxamide] was tested. Which EC50 did it give?
A: 9.7 nM

Q: How did the EC50 turn out when `COc1c(F)cc(C(=O)N2CC3(CC(O)C3)C2)cc1C(=O)N[C@H]1[C@@H](C(=O)Nc2ccc(F)c(C(F)(F)F)c2)[C@H]2CC[C@@H]1/C2=C\C1CCCC1` [Example 371, (1R,2S,3R,4R,7Z)-7-(cyclopentyl-methylidene)-N-[4-fluoro-3-(trifluoromethyl)phenyl]-3-(3-fluoro-5-{6-hydroxy-2-azaspiro[3.3]heptane-2-carbonyl}-2-methoxybenzamido) bicyclo[2.2.1]heptane-2-carboxamide] was run?
A: 2.8 nM

Q: For `COc1c(F)cc(C(=O)N2CC3(C2)CC(O)(C(F)(F)F)C3)cc1C(=O)N[C@H]1[C@@H](C(=O)N[C@H](C)C2(C)CC2)[C@H]2CC[C@@H]1/C2=C\C1CC1` [Example 372, (1R,2S,3R,4R,7Z)-7-(cyclopropyl-methylidene)-3-{3-fluoro-5-[6-hydroxy-6-(trifluoromethyl)-2-azaspiro[3.3]heptane-2-carbonyl]-2-methoxybenzamido}-N-[(1R)-1-(1-methylcyclopropyl)ethyl]bicyclo[2.2.1] heptane-2-carboxamide], which EC50 is on record?
A: 5.9 nM
